The target of this assay is T1, Human 5-lipoxygenase (Homo sapiens, UniProt P09917).
T1 construct: purchased Cayman 60402; host or cells: insect cells
T1 sequence (P09917 1-674): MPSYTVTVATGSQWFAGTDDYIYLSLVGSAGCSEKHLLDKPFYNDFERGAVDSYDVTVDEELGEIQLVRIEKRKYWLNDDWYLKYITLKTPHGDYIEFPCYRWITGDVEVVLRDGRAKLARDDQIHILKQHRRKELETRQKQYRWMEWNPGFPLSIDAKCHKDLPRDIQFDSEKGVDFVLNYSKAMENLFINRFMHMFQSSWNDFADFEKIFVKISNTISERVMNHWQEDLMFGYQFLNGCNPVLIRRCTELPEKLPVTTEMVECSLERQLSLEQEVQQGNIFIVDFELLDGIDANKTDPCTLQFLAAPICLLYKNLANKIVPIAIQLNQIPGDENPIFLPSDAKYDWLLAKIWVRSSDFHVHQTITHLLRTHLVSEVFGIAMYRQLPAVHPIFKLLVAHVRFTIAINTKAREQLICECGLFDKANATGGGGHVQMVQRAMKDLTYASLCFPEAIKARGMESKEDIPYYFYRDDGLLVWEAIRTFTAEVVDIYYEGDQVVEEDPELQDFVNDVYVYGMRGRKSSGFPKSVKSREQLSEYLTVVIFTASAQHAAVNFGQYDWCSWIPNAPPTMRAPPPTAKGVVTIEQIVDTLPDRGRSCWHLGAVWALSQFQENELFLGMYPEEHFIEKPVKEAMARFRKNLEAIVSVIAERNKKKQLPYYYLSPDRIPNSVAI
Kind of assay: Activity of compounds against 5-LO enzyme (LTB4 measurement and/or fluorescence method). As to conditions: 5-LO, single concentration of 10 uM in duplicate. The class given is biochemical. As to the method:
The activity of compounds against 5-LO were determined by measuring LTB4 (leukotriene B4) levels and/or by a fluorescence method. Both approaches are outlined in more detail below;
Human 5-lipoxygenase (Cayman, Cat#60402) produced in insect cells was pre-incubated with compound for 15 min at RT in incubation buffer (50 mM Tris-Cl, pH 7.4, 2 mM CaCl2, 0.1 mM ATP, 1% DMSO). The enzymatic reaction was started by adding arachidonic acid to a final concentration of 3 uM. After 5 min of incubation at 37° C., the reaction was stopped by heatinactivation at 80° C. for 5 min. LTB4 levels were quantified by using LTB4 EIA kit (Cayman, Cat#520111) as instructed and/or LTB4 levelswere measured with LC/MS/MS using Quattro Premier™ XE tandem quadrupole mass spectrometer equipped with Acquity UPLC system (Waters, Milford, Mass.). The method was slightly modified as reported previously (Zweifel et al., 2008, Willey et al., 2008, Chappell et al, 2011). Briefly, chromatographic separation was carried out with Acquity UPLC BEH Shield RP18 Column (2.1 mm×50 mm, 1.7 μm particle size, Waters, Milford, Mass.). Sample injection volume was 10 μl, the column temperature was 35° C., the mobile phase A consisted of water with 0.1% formic acid and the mobile phase B consisted of acetonitrile with 0.1% formic acid. Flow rate was 0.4 mL/min and the gradient condition was as follows.
Relative quantification of LTB4 and LTB4-d4 (Internal Standard) was done using multi reaction monitoring (MRM) of the transitions of m/z 335→195 for LTB4, 339→197 for LTB4-d4 in electrospray ionization (ESI) negative mode. Desolvation temperature was 400° C., source temperature was 130° C. Capillary voltage, cone voltage, and collision voltage were 3.5 kV, 30V, and 20 eV, respectively. Nitrogen was used for desolvation (750 L/h) and cone (50 L/h) gas. Argon was used for collision gas (0.22 ml/min). The dwell time was 10 ms.
Besides the two methods quantifying LTB4 level, a fluorescence assay measuring 5-HpETE was introduced for high-throughput screening in a 384 well microplate format (Pufahl et al., 2007). For nonspecific ester cleavage of the acetate groups in H2DCFDA, the insect cell lysate expressing human 5-LO (Cayman Cat#60402) was incubated with H2DCFDA (50 mM Tris-Cl, pH 7.5, 2 mM CaCl2, 20 uM H2DCFDA, 500 mU 5-LO per reaction) for 5 minutes. Compound and enzyme mixture were pre-incubated for 5 minutes, and the enzymatic reaction was initiated by addition of ATP and arachidonic acid to a final concentration of 100 uM and 3 uM, respectively. After 5 minutes of incubation, the fluorescence was measured using Spectramax M5 (Molecular Device, Ex/Em=485 nm/530 nm). All steps were carried out at room temperature.
A total of 378 compounds were initially tested at a single concentration of 10 uM in duplicate with the results summarized in Table 1. From these 378 compounds, 53 compounds plus an additional 25 were selected for confirmation of activity by 6 or 11 point dose response in duplicate with the corresponding IC50 values outlined in Table 2.
Regarding `Cc1nc2cccc(C)n2c1C(=O)NCc1ccccc1` [compound 34, N-Benzyl-2,5-dimethylimidazo[1,2-a]pyridine-3-carboxamide], the inhibition at 10 µM was 40 to 69%.
Under `Cc1nc2c(F)cccn2c1C(=O)NCc1ccccc1` [compound 35, N-Benzyl-8-fluoro-2-methylimidazo[1,2-a]pyridine-3-carboxamide] stands less than 40%; under `Cc1nc2c(C(F)(F)F)cccn2c1C(=O)NCc1ccccc1` [compound 36, N-Benzyl-2-methyl-8-(trifluoromethyl)imidazo[1,2-a]pyridine-3-carboxamide], less than 40%; under `CCCc1nc2ccccn2c1C(=O)NCc1ccccc1` [compound 37, N-Benzyl-2-propylimidazo[1,2-a]pyridine-3-carboxamide], less than 40%.
On to `O=C(NCc1ccccc1)c1c(C2CC2)nc2ccccn12` [compound 38, N-Benzyl-2-cyclopropylimidazo[1,2-a]pyridine-3-carboxamide], for which the inhibition at 10 µM is less than 40%.
Under `Cc1nc2ccc(-c3ccccc3)cn2c1C(=O)NCc1ccccc1` [compound 39, N-Benzyl-2-methyl-6-phenylimidazo[1,2-a]pyridine-3-carboxamide] stands less than 40%; under `Cc1nc2ccc(F)cn2c1C(=O)NCc1ccccc1` [compound 40, N-Benzyl-6-fluoro-2-methylimidazo[1,2-a]pyridine-3-carboxamide], less than 40%; under `Cc1nc2ccccn2c1NC(=O)Cc1ccccc1` [compound 41, N-(2-Methylimidazo[1,2-a]pyridin-3-yl)-2-phenylacetamide], less than 40%.
In the case of `Cc1nc2cc(C#N)ccn2c1C(=O)NCc1ccccc1` [compound 42, N-Benzyl-7-cyano-2-methylimidazo[1,2-a]pyridine-3-carboxamide], the inhibition at 10 µM is less than 40%.
Molecule `Cc1nc2ccc(Cl)cn2c1C(=O)NCc1ccc(-c2ccccc2)cc1` [compound 43, N-(Biphenyl-4-ylmethyl)-6-chloro-2-methylimidazo[1,2-a]pyridine-3-carboxamide] displayed an inhibition at 10 µM of less than 40%.
The result for `Cc1nc2cc(Cl)ccn2c1C(=O)NCc1ccc(-c2ccccc2)cc1` [compound 44, N-(Biphenyl-4-ylmethyl)-7-chloro-2-methylimidazo[2-a]pyridine-3-carboxamide] reads less than 40%; that for `CCc1nc2ccccn2c1C(=O)NCc1ccc(Oc2ccccc2)cc1` [compound 45, 2-Ethyl-N-(4-phenoxybenzyl)imidazo[1,2-a]pyridine-3-carboxamide], less than 40%; that for `CCCc1nc2ccccn2c1C(=O)NCc1ccc(-c2ccccc2)cc1` [compound 46, N-(Biphenyl-4-ylmethyl)-2-propylimidazo[1,2-a]pyridine-3-carboxamide], 40 to 69%.
In turn, `Cc1nc2c(C#N)cccn2c1C(=O)NCc1ccccc1` [compound 47, N-Benzyl-8-cyano-2-methylimidazo[1,2-a]pyridine-3-carboxamide] yielded an inhibition at 10 µM of less than 40%.
As for `Cc1nc2c(O)cccn2c1C(=O)NCc1ccccc1` [compound 48, N-Benzyl-8-hydroxy-2-methylimidazo[1,2-a]pyridine-3-carboxamide], the inhibition at 10 µM is less than 40%.
For `CCc1nc2ccccn2c1C(=O)NCc1ccc(C(C)(C)C)cc1` [compound 49, N-(4-tert-Butylbenzyl)-2-ethylimidazo[1,2-a]pyridine-3-carboxamide], the inhibition at 10 µM is less than 40%.
The result for `CCc1nc2ccccn2c1C(=O)NCc1ccc2c(ccn2C)c1` [compound 50, 2-Ethyl-N-((1-methyl-1H-indol-5-yl)methyl)imidazo[1,2-a]pyridine-3-carboxamide] reads less than 40%; that for `CCc1nc2ccccn2c1C(=O)NCc1ccc(OC(F)(F)F)cc1` [compound 51, 2-Ethyl-N-(4-(trifluoromethoxy)benzyl)imidazo[1,2-a]pyridine-3-carboxamide], less than 40%.

For the origin of these results see patent US9029389B2 (Institut Pasteur Korea, priority 2011, dated 2015).
